From patent US20170226139A1, “CRYSTALLINE SALTS OF (Z)-O-OCTADEC-9-EN-1-YL O,O-DIHYDROGEN PHOSPHOROTHIOATE” (priority 2013, published 2017)
Like-named read-outs stand apart in the source and are kept apart here.

Key:
[1] = Rx100 salt screening (solid formation, XRPD wet/dry, filterability, exposure to RH > 90%); settings: for Filterability / Crystallinity / Polymorphic behavior: Rx100 salt formed with the named base; for Crystallinity / Polymorphic behavior: XRPD
Experimental: We designed a complex and unconventional screening regime to screen for Rx100 crystalline salts. […] The screening regime is described as follows.
Rx100.FA in the form of a viscous liquid and eighteen counter ions were used as starting materials. These counter ions are listed and numbered in Table 4. The numbers will be used for grouping the resulting solids. The screening was performed in three stages.
Stage one (1) included screening 11 counter ions: sodium hydroxide, ammonium hydroxide, ethylenediamine, diethylamine, tromethamine (Tris), hydroxyethyl morpholine, benzathine, dimethylamino ethanol, L-Arginine, L-Lysine, L-Histidine. […] In stage 1, we performed three rounds of experiment.
In the first round of experiment, four (4) solvent systems, i.e., isopropyl alcohol (IPA), diethyl ether (DEE), IPA:water (a mixture at a volume ratio of 95:5) and tetrahydrofuran (THF), were used. Thus in this first round of screening, 44 individual base-acid reactions were conducted in 44 vials.
First, Rx100.FA and each of the bases were mixed in a vial. […] In each of the 44 vials, 211.1 μL of the prepared liquid, which was equivalent to about 35 mg of Rx100.FA, was first dispensed. Then, one equivalent (molar) of each of the 11 bases was dispensed in its corresponding vial. For example, the base sodium hydroxide was added to vials 1, 12, 23 and 34. Similarly, L-histidine was added to vials 11, 22, 33 and 44. Observations were recorded upon addition of the bases in to Rx100.FA.
Second, the solvent in each mixture was depleted. All vials containing the mixtures of Rx100.FA and each of the bases were left under moderate vacuum and nitrogen bleed at room temperature overnight to evaporate the solvent. The vials were then kept under full vacuum for about an hour to make sure the solvents (ethanol and water) are evaporated. Observations on formation of solid upon evaporation were recorded.
Third, solvents were added in each vial to induce solid formation. In each vial, a stir bar and one of the four selected solvents (each 5 volumes with respect to the Rx100.FA) were added. The vials were then capped. IPA was added to the first set of 11 vials (1-11), DEE added to the second set of 11 vials (12-22), IPA:water added to the third set of 11 vials (23-33), and THF added to the fourth set of 11 vials (34-44). The vials were left at room temperature while stirring for at least 5 hours. Observations were recorded.
The first set of XRPD analyses were recorded as “wet” samples. The solids were dried under vacuum for 1 hour and at room temperature followed by XRPD as “dry” sample. The dry solid was then exposed to relative humidity of more than 90% overnight followed by XRPD analysis. For XRPD naming, a number and a letter were used. The number refers to the counter ion and the letter refers to the chronological discovered XRPD pattern of that particular salt.
In the second round of experiment of stage one, another four (4) solvent systems, i.e., methanol (MeOH), tert-Butyl methyl ether (tBME), ethyl acetate and toluene, were used in the same 44 vials as used in the first round experiment. The solvents in all 44 vials from the first round were evaporated to dryness under vacuum and nitrogen bleed. The 4 new solvents were then added into the vials. Methanol was added to the first set of 11 vials (1-11), tBME added to the second set of 11 vials (12-22), Ethyl acetate added to the third set of 11 vials (23-33), and Toluene added to the fourth set of 11 vials (34-44). The same procedure as in the first round of experiment was followed for these new solvents and samples were taken for XRPD analysis.
In the third round of experiment, effect of base equivalence was assessed. […] After addition of the extra base, the previous solvent was evaporated and new solvents added.

[2] = tested on: S. typhimurium strains TA98, TA100, TA1535 and TA1537 and E. coli strain WP2uvrA; format: cell-based
Experimental: An Ames assay was conducted on Rx100.Lysine using S. typhimurium strains TA98, TA100, TA1535 and TA1537 and E. coli strain WP2uvrA. Two trials were performed. […] See Tables 38A and 38B, respectively. In the second trial, doses ranged from 0.160 to 16 μg/plate with some strains tested with activation and others without activation.

[3] = tested on: Cultured human peripheral lymphocytes cells; format: cell-based; settings: for Aberrant Cells Mean % −g: excluding gaps only; for Aberrant Cells Mean % +g: plus cells with gaps only
Experimental: Cultured human peripheral lymphocytes cells were incubated in vitro with Rx100.Lysine for 3 hours with and without S9 mix and for 24 hours without S9 mix. For Rx100.Lysine, concentrations ranging from 3.39 to 500 μg/mL were examined in both treatment conditions. Adjusting for purity, the concentration ranges were 3.06 to 452 μg/mL. […] This increase was just above the historical vehicle control range (0 to 2.0%) for 3 hour treatment without metabolic activation. Thus the response observed is a weak positive and of questionable biological significance cytotoxicity was present just below the acceptable limit of 50±5% for this assay.
Thus, Rx100.Lysine was considered negative for inducing chromosome aberrations, polyploidy and endoreduplication, in cultured human peripheral blood lymphocytes following a 3 hour treatment with and a 24 treatment without metabolic activation.

[4] = Single subcutaneous dose pharmacokinetics in irradiated and unirradiated mice; format: in vivo, C57BL/6 mice; settings: single SC dose 1 mg/kg
Source text: We performed a randomized, open-label, single-dose, four-arm, subcutaneously-administered, study of the pharmacokinetics of Rx100.Ammonia and Rx100.Lysine in irradiated and unirradiated C57BL/6 mice to evaluate the effect of salt form and irradiation on extravascular pharmacokinetics. The purpose of this study was to evaluate the pharmacokinetic parameters for two salt forms of Rx100 (Lysine and Ammonia) in healthy and PB irradiated (IR) mice when administered as a single dose. Each animal received a 1 mg/kg dose of Rx100.Lysine or Rx100.Ammonia. The animals receiving Rx100.Lysine or Rx100.Ammonia after irradiation were dosed 26±2 hours after irradiation and sampling times are relative to the time of test article dosing.
More specifically, randomized, acclimated, C57BL/6 mice were administered Rx100.Lysine or Rx100.Ammonia (10 mM L-histidine in sterile water for injection, or 1% ethanol, 2% propylene glycol in PBS, respectively) as a single dose as indicated in Table 25.
Blood was collected from 4 male and 4 female mice via cardiac puncture at pre-defined time points relative to test article dosing (0.5, 1, 2, 4, 6, 8, 12, 18, 24, and 48 hours) and collected into micro plasma separator vials (BD Microtainer®) containing lithium heparin. Blood was maintained on ice until centrifugation and subsequent processing. Blood draws were a terminal procedure. Plasma was frozen at −80° C. until submitted for bioanalysis. Sample collection was completed in September 2012. Samples were transferred to Covance in December 2013, and sample analysis was complete in the first quarter of 2014.
A total of 160 male and 160 female C57BL/6 10-12 week old mice were used in this study. Animals were randomized with weight stratification into treatment groups and given a second ear tag. Animals were acclimated for 16-19 days (See below Table 26). Prior to irradiation or dosing (in non-irradiated groups), animals were weighed a second time which was the basis of the animal dose delivered.
TLDs were used for dosimetry and confirmation of the delivered dose. TLDs were analyzed by MD Anderson and have a +/−5% accuracy. A total of 19 dosimeters were used with a mean measured dose of 15.33±0.166 Gy.
Analysis was performed using qualified and validated Phoenix® WinNonlin® Software. The final data provided was imported into Phoenix® WinNonlin®. All data presented in the tables and figures within the results section of this report were generated using the validated Phoenix® WinNonlin® Software.

[5] = 3-hour treatment without metabolic activation, positive control 1.00 μg/mL
[6] = 24-hour treatment without metabolic activation, positive control 0.300 μg/mL
[7] = 3-hour treatment with metabolic activation, positive control 25.0 μg/mL
[8] = + IR (irradiated mice), whole group (not split by gender), 1 mg/kg
[9] = healthy mice, whole group (not split by gender), 1 mg/kg
[10] = irradiated mice (15.6 Gy, dosed 26 ± 2 h after), F, 1 mg/kg
[11] = irradiated mice (15.6 Gy, dosed 26 ± 2 h after), M, 1 mg/kg

CCCCCCCC/C=C\CCCCCCCCOP(O)(O)=S.NCCN [Rx100 Ethylenediamine salt]
Stability at high humidity [1]: stable at high humidity
Filterability [1]: filterable
Crystallinity [1]: showed crystallinity
Polymorphic behavior [1]: Creamy/oily on XRPD
Crystallinity ([1]; listed as Ethyldiamine): yes
Filterability ([1]; listed as Ethyldiamine): yes

CCCCCCCC/C=C\CCCCCCCCOP([O-])(O)=S.[Na+] [Sodium]
Filterability [1]: no
Crystallinity [1]: yes
Polymorphic behavior [1]: Polymorphic on XRPD

COc1ccc2nc3cc(Cl)ccc3c(NCCCNCCCl)c2c1 [ICR-191]
Revertant Colony Counts (Mean ± SD) ([2]; Without Metabolic Activation, TA1537, positive control 2.0 μg/plate): 562 ± 33 ^N

[N-]=[N+]=[N-] [sodium azide]
Revertant Colony Counts (Mean ± SD) ([2]; Without Metabolic Activation, TA100, positive control 2.0 μg/plate): 969 ± 137 ^N
Revertant Colony Counts (Mean ± SD) ([2]; Without Metabolic Activation, TA1535, positive control 2.0 μg/plate): 863 ± 45 ^N

NC(CO)(CO)CO [Tromethamine]
Filterability [1]: no
Crystallinity [1]: no
Polymorphic behavior [1]: Oily on XRPD
RH > 90% overnight (XRPD pattern or state after exposure) ([1]; stage 1, third round, 2.1 eq of base, listed as 4-16): 5-A + Tris

CO[C@@]12[C@H](COC(N)=O)C3=C(C(=O)C(C)=C(N)C3=O)N1C[C@@H]1N[C@@H]12 [Mitomycin C]
Endoreduplicate Mean % [3, 5]: 0.0%
Polyploidy Mean % [3, 5]: 0.0%
Aberrant Cells Mean % −g [3, 5]: 57.0%
Aberrant Cells Mean % +g [3, 5]: 59.0%
Endoreduplicate Mean % [3, 6]: 0.0%
Polyploidy Mean % [3, 6]: 0.0%
Aberrant Cells Mean % −g [3, 6]: 58.0%
Aberrant Cells Mean % +g [3, 6]: 61.0%

Nc1ccc2cc3ccccc3cc2c1 [2-aminoanthracene]
Revertant Colony Counts (Mean ± SD) ([2]; TA100, with metabolic activation, positive control 2.5 μg/plate): 2106 ± 68 ^N
Revertant Colony Counts (Mean ± SD) ([2]; TA1535, with metabolic activation, positive control 2.5 μg/plate): 205 ± 11 ^N
Revertant Colony Counts (Mean ± SD) ([2]; TA1537, with metabolic activation, positive control 2.5 μg/plate): 176 ± 19 ^N C
Revertant Colony Counts (Mean ± SD) ([2]; WP2uvrA, with metabolic activation, positive control 25.0 μg/plate): 634 ± 14 ^N

O=P1(N(CCCl)CCCl)NCCCO1 (stereo not shown) [cyclophosphamide, reference compound]
Cytotoxicity (% of Control) [3, 7]: 12 % of Control
Endoreduplicate Mean % [3, 7]: 0.0%
Polyploidy Mean % [3, 7]: 0.0%
Aberrant Cells Mean % −g [3, 7]: 58.0%
Aberrant Cells Mean % +g [3, 7]: 65.0%

CCCCCCCC/C=C\CCCCCCCCOP(O)(O)=S [Rx100.Ammonia, (Z)—O-octadec-9-en-1-yl O,O-dihydrogen phosphorothioate]
CL ([4]; IR females): 10.5 mL/min/kg
AUC ([4]; IR females, 1 mg/kg): 1591 ng·h/mL
CL ([4]; IR males): 9.68 mL/min/kg
AUC ([4]; IR males, 1 mg/kg): 1721 ng·h/mL
half-life, change after irradiation ([4]; IR versus healthy mice): no change
CL ([4]; healthy females): 14.5 mL/min/kg
exposure (AUC) ([4]; healthy females, 1 mg/kg): 1152 ng·h/mL
CL ([4]; healthy males): 11 mL/min/kg
AUC ([4]; healthy males, 1 mg/kg): 1521 ng·h/mL
Tmax ([4]; healthy mice, 1 mg/kg): 30 to 60 min
Tmax ([4]; irradiated (IR) mice, 26±2 hours after 15.6 Gy, 1 mg/kg): 30 to 60 min
AUCINF_obs [4, 8]: 1644.99 ng·h/mL
CLss_F [4, 8]: 10.132 mL/min/kg
Cmax [4, 8]: 466.71 ng/mL
HL_Lambda_z [4, 8]: 1.37 h
Vz_F [4, 8]: 1.20034 L/kg
AUCINF_obs ([4]; healthy mice, F, 1 mg/kg): 1152.19 ng·h/mL
CLss_F ([4]; healthy mice, F, 1 mg/kg): 14.466 mL/min/kg
Vz_F ([4]; healthy mice, F, 1 mg/kg): 1.72837 L/kg
AUCINF_obs ([4]; healthy mice, M, 1 mg/kg): 1521.44 ng·h/mL
CLss_F ([4]; healthy mice, M, 1 mg/kg): 10.954 mL/min/kg
Vz_F ([4]; healthy mice, M, 1 mg/kg): 1.3407 L/kg
AUCINF_obs [4, 9]: 1342.00 ng·h/mL
CLss_F [4, 9]: 12.419 mL/min/kg
Cmax [4, 9]: 383.75 ng/mL
HL_Lambda_z [4, 9]: 1.78 h
Vz_F [4, 9]: 1.91818 L/kg
AUCINF_obs [4, 10]: 1591.05 ng·h/mL
CLss_F [4, 10]: 10.475 mL/min/kg
Vz_F [4, 10]: 1.22969 L/kg
AUCINF_obs [4, 11]: 1720.87 ng·h/mL
CLss_F [4, 11]: 9.685 mL/min/kg
Vz_F [4, 11]: 1.27697 L/kg

O=[N+]([O-])c1ccc2c(c1)Cc1ccccc1-2 [2-nitrofluorene]
Revertant Colony Counts (Mean ± SD) ([2]; Without Metabolic Activation, TA98, positive control 1.0 μg/plate): 329 ± 65 ^N
